The source of these data is patent US11820756B2, “Bradykinin B2 receptor antagonists” (Pharvaris Netherlands B.V., priority 2017, dated 2023).

The structures appear in SMILES notation. A value given as a limit tells only on which side of the number the result lay.

For this experiment, the target named is T1, human bradykinin B2 receptor (hB2R) (Homo sapiens, UniProt P30411).
T1 sequence (P30411 1-391): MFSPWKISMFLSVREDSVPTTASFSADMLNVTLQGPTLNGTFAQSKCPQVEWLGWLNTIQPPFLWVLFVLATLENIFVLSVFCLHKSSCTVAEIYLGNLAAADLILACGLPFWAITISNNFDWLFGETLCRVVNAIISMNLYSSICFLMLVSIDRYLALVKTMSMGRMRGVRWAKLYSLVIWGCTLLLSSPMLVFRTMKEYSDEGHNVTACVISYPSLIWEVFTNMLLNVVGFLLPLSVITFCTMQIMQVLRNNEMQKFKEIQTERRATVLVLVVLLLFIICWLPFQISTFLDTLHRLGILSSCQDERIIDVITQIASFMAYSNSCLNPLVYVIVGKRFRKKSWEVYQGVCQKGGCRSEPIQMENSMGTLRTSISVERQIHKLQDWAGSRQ
The experiment in a line: cell-based human bradykinin B2 receptor calcium mobilization (hB2R-CaM) assay. The conditions noted are these: HTS041C cells, bradykinin at EC80, calcium mobilization; read-out: IC50-value towards human bradykinin B2 receptor (hB2R). An excerpt:
The following cell-based human bradykinin B2 receptor calcium mobilization (hB2R-CaM) assay was used to determine the antagonistic activity of compounds selected from the example compounds Nos. 1 to 168 towards human bradykinin B2 receptor (hB2R). The assay is defined herein as a standard in vitro B2 receptor activity assay, which can be used to determine IC50 values of the compounds according to the present invention, e. g. the compounds shown in Examples 1-11.
The antagonistic activity of compounds according to the present invention was investigated with the hB2R-CaM assay using the B2 Bradykinin Receptor Stable Cell Line HTS041C (Eurofins, St. Charles MO) and the FLIPR Calcium 6 Assay Kit (Molecular Devices, Wokingham, UK) according to the instructions of the providers. CaM assay measurements were performed with a Flexstation 3 System (Molecular Devices) which allows the precise addition of compounds (B2R antagonists) and bradykinin (B2R agonist) to the cells and adjacent continuous recording of the time-dependent CaM assay signals.
HTS041C cells were cultured in high glucose DMEM cell culture medium (Lonza) supplemented with 10% heat-inactivated FBS (PAN Biotech), 10 mM HEPES, Penicillin/Streptomycin (200 U/mL, 200 μg/mL), 1× non-essential amino acids (Lonza), and 250 μg/mL G418 (Invivogen) in cell incubator at 37° C. in a 5% CO2 atmosphere.
One day before the CaM assay experiments cells were seeded in 200 μL DMEM cell culture medium with reduced FBS (5%) and without G418 on clear bottom black 96 well plates (ThermoFisher #165305). Cell starvation was carried out by incubation (37° C., 5% CO2) of 70.000 cells/well for 24 h to 28 h. Immediately prior calcium dye-loading the medium was carefully aspirated and cells were washed with Hank's balanced salt solution (HBSS, Gibco) containing Ca^2+, Mg^2+ and 20 mM HEPES, adjusted to pH 7.4 (HBSS+). Calcium Dye Loading of the Cells:
For calcium dye-loading one FLIPR 6 assay aliquot was dissolved in 20 mL HBSS+. 150 μL of the dye loading solution was added to cell plate and incubated for 120 min at 37° C. and 5% CO2. After dye loading the cell plate was immediately transferred to the pre-warmed (37° C.) Flexstation 3 System for CaM assaying.
Freshly prepared compound (B2 receptor antagonists) dilution series (8 pt, n=2) and bradykinin (B2 receptor agonist) solution in non-binding plates (Costar) were transferred to the Flexstation System (source plate) shortly before starting the experiment. Bradykinin was added in EC80 concentration determined in n>3 preliminary experiments with 8 pt concentration response curves (n=8)). CaM assay was executed by Flexstation 3 System starting with recording of calcium-sensitive dye fluorescence in bottom-read Flex modus with ex/em=485 nm/525 nm, cut off(em)=[…]. After 20 s, 50 μL of 4-fold concentrated compound dilutions were added to the cells resulting in a final DMSO (Sigma) concentration of 0.1% in the cell plate. CaM signals were monitored for 80 s after additions for detection of potential agonistic activities. Prior to bradykinin stimulus compound- and vehicle-treated cells were incubated for 25 min at 37° C. within the Flexstation System. Then 50 μL of a 5-fold concentrated bradykinin solution (HBSS+, 0.1% DMSO) was added to trigger CaM signals (Read out: Max-Min values) which were measured for 80 s post bradykinin stimulus.
IC50 determinations were performed by 4 parameter logistic model curve fitting of the 8 pt (n=2) compound concentration response curves using XLFIT (IDBS) software.
Relative IC50 values of the test compounds were determined with the same hB2R-CaM assay as in Example 12.
A general note: Calcium assays in cells follow changes in intracellular calcium, usually with a dye or a luminescent sensor.
As to `[2H]C([2H])([2H])[C@]([2H])(NC(=O)c1cocn1)c1cc(F)cc(Cl)c1COc1cccc2c(-c3ncnn3C)cc(C)nc12` [Compound 201], the IC50 – broadly, the concentration at which inhibition is half-maximal – was no more than 50 nM.

Consider `CO[C@@H](C)C(=O)N[C@@H](C)c1cc(F)cc(Cl)c1COc1cccc2c(-n3nccn3)cc(C)nc12` [Compound 29], for which the IC50 was no more than 50 nM.

For the compound `CCc1ncnn1-c1cc(C)nc2c(OCc3c(Cl)cc(F)cc3[C@H](C)NC(=O)c3cocn3)cccc12` [Compound 170], the IC50 was no more than 50 nM. The result for `[2H][C@@](C)(NC(=O)C(F)F)c1cc(F)cc(Cl)c1COc1cccc2c(-c3ncnn3C)cc(C)nc12` [Compound 183] reads no more than 50 nM; that for `[2H][C@@](C)(NC(=O)[C@H](C)F)c1cc(F)cc(Cl)c1COc1cccc2c(-n3ncnc3C)cc(C)nc12` [Compound 212], no more than 50 nM; that for `Cc1cc(-n2cc(F)cn2)c2cccc(OCc3c(Cl)cc(F)cc3[C@H](C)NC(=O)CO)c2n1` [Compound 49], 51 to 250 nM. The result for `Cc1cc(-n2cc(F)cn2)c2cccc(OCc3c(Cl)cc(F)cc3[C@H](C)NC(=O)C(C)(C)C(F)(F)F)c2n1` [Compound 48] reads 51 to 250 nM; that for `Cc1cc(-c2ccnn2C)c2cccc(OCc3c(Cl)cc(F)cc3[C@H](C)NC(=O)C(C)(C)O)c2n1` [Compound 184], no more than 50 nM; that for `[2H][C@@](CO)(NC(=O)COC(F)F)c1cc(F)cc(Cl)c1COc1cccc2c(-c3ncnn3C)cc(C)nc12` [Compound 11B, (R)—N-(1-Deutero-1-(3-chloro-5-fluoro-2-((2-methyl-4-(1-methyl-1H-1,2,4-triazol-5-yl)quinolin-8-yloxy)methyl)phenyl)-2-hydroxyethyl)-2-(difluoromethoxy)acetamide], no more than 50 nM. As for `Cc1cc(-n2ncc(F)c2C)c2cccc(OCc3c(Cl)cc(F)cc3[C@H](C)NC(=O)[C@@H](C)O)c2n1` [Compound 8, (R)—N—((S)-1-(3-chloro-5-fluoro-2-((4-(4-fluoro-5-methyl-1H-pyrazol-1-yl)-2-methylquinolin-8-yloxy)methyl)phenyl)ethyl)-2-hydroxypropanamide], the IC50 lay within 51 to 250 nM. Take `[2H][C@@](C)(NC(=O)c1cocn1)c1cc(F)cc(Cl)c1COc1cccc2c(-n3ncnc3C)cc(C)nc12` [Compound 198]: the 50% inhibitory concentration (IC50) is no more than 50 nM. The result for `Cc1cc(-n2nccn2)c2cccc(OCc3c(Cl)cc(F)cc3[C@H](C)NC(=O)C(C)(C)O)c2n1` [Compound 28] reads 51 to 250 nM. The result for `Cc1cc(-n2cc(F)cn2)c2cccc(OCc3c(Cl)cc(F)cc3[C@H](C)NC(=O)[C@@H]3COC(=O)N3)c2n1` [Compound 111] reads 51 to 250 nM; that for `Cc1cc(-n2nc(C)nc2C)c2cccc(OCc3c(Cl)cc(F)cc3[C@H](C)NC(=O)c3cc(C)on3)c2n1` [Compound 136], 51 to 250 nM; that for `Cc1cc(-c2ncnn2C)c2cccc(OCc3c(Cl)cc(F)cc3[C@H](C)NC(=O)C(C)(F)F)c2n1` [Compound 178], no more than 50 nM. On to `Cc1cc(-c2ncnn2C)c2cccc(OCc3c(Cl)cc(F)cc3[C@H](C)NC(=O)c3cc(C)n(C)n3)c2n1` [Compound 129], for which the IC50 was no more than 50 nM.

Turning to `[2H]C([2H])([2H])[C@H](NC(=O)COC(F)F)c1cc(F)cc(Cl)c1COc1cccc2c(-c3ncnn3C)cc(C)nc12` [Compound 202], the IC50 is no more than 50 nM. The result for `Cc1cc(-n2cc(F)cn2)c2cccc(OCc3c(Cl)cc(F)cc3[C@H](C)NC(=O)[C@@H]3CCC(=O)N3)c2n1` [Compound 114] reads 51 to 250 nM. The result for `Cc1cc(-c2ncnn2C)c2cccc(OCc3c(Cl)cc(F)cc3[C@H](C)NC(=O)C(F)F)c2n1` [Compound 147] reads no more than 50 nM; that for `Cc1cc(-n2ncnc2C)c2cccc(OCc3c(Cl)cc(F)cc3[C@H](C)NC(=O)C(F)F)c2n1` [Compound 174], no more than 50 nM. The result for `Cc1cc(-n2cc(F)cn2)c2cccc(OCc3c(Cl)cc(F)cc3[C@H](C)NC(=O)[C@@H](O)CCN(C)C)c2n1` [Compound 72] reads 251 to 1000 nM; that for `CC[C@@H](O)C(=O)N[C@@H](C)c1cc(F)cc(Cl)c1COc1cccc2c(-n3nccn3)cc(C)nc12` [Compound 34], 51 to 250 nM; that for `[2H][C@@](C)(NC(=O)c1cocn1)c1cc(F)cc(Cl)c1COc1cccc2c(-c3ncnn3C)cc(C)nc12` [Compound 199], no more than 50 nM. Turning to `COCC(=O)N[C@@H](C)c1cc(F)cc(Cl)c1COc1cccc2c(-c3ncnn3C)cc(C)nc12` [Compound 83], the half-inhibitory concentration (IC50) is no more than 50 nM. The result for `CC[C@@H](O)C(=O)N[C@@H](C)c1cc(F)cc(Cl)c1COc1cccc2c(-n3cnc(C)n3)cc(C)nc12` [Compound 100] reads 251 to 1000 nM; that for `Cc1cc(-n2cc(F)cn2)c2cccc(OCc3c(Cl)cc(F)cc3[C@H](C)NC(=O)C(F)F)c2n1` [Compound 146], 51 to 250 nM. Under `Cc1cc(-c2ncnn2C)c2cccc(OCc3c(Cl)cc(F)cc3[C@H](C)NC(=O)[C@@H](C)F)c2n1` [Compound 204] stands no more than 50 nM. Turning to `Cc1cc(-c2ncnn2C)c2cccc(OCc3c(Cl)cc(F)cc3[C@H](C)NC(=O)C3CCC(C)(C)O3)c2n1` (stereo partly shown) [Compound 118], the IC50 is no more than 50 nM.

As for `[2H][C@@](C)(NC(=O)CC(F)F)c1cc(F)cc(Cl)c1COc1cccc2c(-c3ncnn3C)cc(C)nc12` [Compound 210], the IC50 was no more than 50 nM. `Cc1cc(-c2ccnn2C)c2cccc(OCc3c(Cl)cc(F)cc3[C@H](C)NC(=O)C(F)F)c2n1` [Compound 176]: the IC50 is no more than 50 nM.

On to `CCc1ncnn1-c1cc(C)nc2c(OCc3c(Cl)cc(F)cc3[C@H](C)NC(=O)C(C)(C)O)cccc12` [Compound 171], for which the IC50 is no more than 50 nM. The result for `Cc1cc(-n2ncnc2C)c2cccc(OCc3c(Cl)cc(F)cc3[C@H](C)NC(=O)c3cocn3)c2n1` [Compound 159] reads no more than 50 nM; that for `Cc1cc(-n2cc(F)cn2)c2cccc(OCc3c(Cl)cc(F)cc3[C@H](C)NC(=O)[C@@H]3CCOC3)c2n1` [Compound 19], no more than 50 nM; that for `Cc1cc(-c2[nH]ncc2C)c2cccc(OCc3c(Cl)cc(F)cc3[C@H](C)NC(=O)c3cnco3)c2n1` [Compound 187], no more than 50 nM.

Turning to `Cc1cc(-n2ncnc2C)c2cccc(OCc3c(Cl)cc(F)cc3[C@H](C)NC(=O)COC(F)(F)F)c2n1` [Compound 161], the IC50 was no more than 50 nM.

For the compound `Cc1cc(-n2ncnc2C)c2cccc(OCc3c(Cl)cc(F)cc3[C@H](C)NC(=O)c3coc(C)n3)c2n1` [Compound 156], the IC50 was no more than 50 nM. Under `Cc1cc(-n2nccn2)c2cccc(OCc3c(Cl)cc(F)cc3[C@H](C)NC(=O)[C@H](C)O)c2n1` [Compound 32] stands 51 to 250 nM; under `Cc1cc(-n2cc(F)cn2)c2cccc(OCc3c(Cl)cc(F)cc3[C@H](C)NC(=O)[C@@H]3COC(C)(C)O3)c2n1` [Compound 61], no more than 50 nM; under `Cc1cc(-c2ncnn2C)c2cccc(OCc3c(Cl)cc(F)cc3[C@H](C)NC(=O)COC(F)(F)F)c2n1` [Compound 116], no more than 50 nM. Turning to `CC[C@H](NC(=O)c1coc(C)n1)c1cc(F)cc(Cl)c1COc1cccc2c(-n3cc(F)cn3)cc(C)nc12` [Compound 152], the half-inhibitory concentration (IC50) is 51 to 250 nM.
